Laboratory results from US20240116985A1, “STAPLED PEPTIDES AND METHODS THEREOF” (priority 2020, published 2024).

Legend:
[1] = biological target: T1, full-length beta-Catenin (Uniprot ID P35222) (Homo sapiens, UniProt P35222); assay: Fluorescence polarization IC50 (beta-catenin / 5FAM-TCF4 10-53 competition); assay type: binding; conditions: fluorescence polarization; read-out: beta-Catenin FP IC50
T1 construct: 10 nM full-length beta-Catenin (Uniprot ID P35222)
T1 sequence (P35222 1-781): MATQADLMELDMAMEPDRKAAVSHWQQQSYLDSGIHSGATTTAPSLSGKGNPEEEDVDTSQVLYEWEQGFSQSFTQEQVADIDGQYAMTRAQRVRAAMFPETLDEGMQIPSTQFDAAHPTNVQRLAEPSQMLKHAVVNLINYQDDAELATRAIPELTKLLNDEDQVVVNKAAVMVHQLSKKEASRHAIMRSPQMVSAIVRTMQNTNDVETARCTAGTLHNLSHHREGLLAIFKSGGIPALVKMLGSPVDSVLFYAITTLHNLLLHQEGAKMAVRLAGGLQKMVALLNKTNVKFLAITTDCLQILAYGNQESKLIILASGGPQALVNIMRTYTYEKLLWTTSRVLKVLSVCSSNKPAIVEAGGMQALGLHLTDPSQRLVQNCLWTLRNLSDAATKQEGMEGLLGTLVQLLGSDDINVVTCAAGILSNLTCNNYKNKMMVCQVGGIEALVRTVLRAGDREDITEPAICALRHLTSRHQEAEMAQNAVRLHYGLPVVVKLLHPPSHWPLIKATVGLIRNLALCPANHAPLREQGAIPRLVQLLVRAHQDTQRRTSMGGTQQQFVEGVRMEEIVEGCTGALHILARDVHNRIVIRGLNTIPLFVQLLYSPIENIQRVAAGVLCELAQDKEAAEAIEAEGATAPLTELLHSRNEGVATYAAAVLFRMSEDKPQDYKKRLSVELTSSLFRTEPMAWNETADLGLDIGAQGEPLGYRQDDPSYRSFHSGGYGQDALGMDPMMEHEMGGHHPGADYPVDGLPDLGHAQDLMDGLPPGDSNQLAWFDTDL

[2] = biological target: T2, beta-catenin/TCF4 engagement (Homo sapiens, UniProt P35222); assay: Nano-BRET target engagement assay (B-cat-Halo & TCF4-Luc in HEK293 cells); assay type: cell-based; conditions: read-out: NanoBRET Abs IC50
T2 construct: expressed in transfected cells; host or cells: HEK293
T2 sequence (P35222 1-781): T1 sequence (P35222 1-781)

| SMILES | IC50 [1] | IC50 [2] |
| --- | --- | --- |
| CC(=O)N[C@]1(C)CCCC=CCCCC2(CCCC=CCCCOC(=O)N3CC[C@@](C(=O)N[C@@H](Cc4ccccc4C(F)(F)F)C(=O)N[C@@H](Cc4csc5ccccc45)C(=O)N[C@@H](CCC(N)=O)C(N)=O)(C3)NC(=O)[C@H](CC(C)C)NC(=O)[C@H](Cc3ccccc3)NC(=O)[C@H](C)NC(=O)[C@H](C)NC(=O)[C@H](Cc3cccc(C(=O)O)c3)NC(=O)[C@H](CC(=O)O)NC2=O)NC(=O)[C@H](CC(C)(C)C)NC(=O)[C@H](CC(=O)O)NC1=O (stereo partly drawn) [I-2565, Ac-R5-Asp-Npg-B5-Asp-3COOHF-Ala-Ala-Phe-Leu-PyrS2-2F3MeF-BztA-Gln-NH2] | 90 nM | 21000 nM |
| CC(=O)N[C@]1(C)CCCCCCCCC2(CCCCCCCCOC(=O)N3CC[C@@](C(=O)N[C@@H](Cc4ccccc4C(F)(F)F)C(=O)N[C@@H](Cc4csc5ccccc45)C(=O)N[C@@H](CCC(N)=O)C(N)=O)(C3)NC(=O)[C@H](CC(C)C)NC(=O)[C@H](Cc3ccccc3)NC(=O)[C@H](C)NC(=O)[C@H](C)NC(=O)[C@H](Cc3cccc(C(=O)O)c3)NC(=O)[C@H](CC(=O)O)NC2=O)NC(=O)[C@H](CC(C)(C)C)NC(=O)[C@H](CC(=O)O)NC1=O (stereo partly drawn) [I-2571, Ac-R5-Asp-Npg-B5-Asp-3COOHF-Ala-Ala-Phe-Leu-PyrS2-2F3MeF-BztA-Gln-NH2] | 42 nM | 24000 nM |
| CC(=O)N1CCC[C@H]1C(=O)N[C@]1(C)CCCCCCC2(CCCCCCCCOC(=O)N3CC[C@@](C(=O)N[C@@H](Cc4ccccc4C(F)(F)F)C(=O)N[C@@H](Cc4csc5ccccc45)C(=O)N[C@@H](CCC(N)=O)C(N)=O)(C3)NC(=O)[C@H](CC(C)C)NC(=O)[C@H](Cc3ccccc3)NC(=O)[C@H](C)NC(=O)[C@H](C)NC(=O)[C@H](Cc3cccc(C(=O)O)c3)NC(=O)[C@H](CC(=O)O)NC2=O)NC(=O)[C@H](CC(C)(C)C)NC(=O)[C@H](CC(=O)O)NC1=O (stereo partly drawn) [I-2572, Ac-Pro-R3-Asp-Npg-B5-Asp-3COOHF-Ala-Ala-Phe-Leu-PyrS2-2F3MeF-BztA-Gln-NH2] | 67 nM | > 20000 nM |
| CC(=O)N1CCC[C@]12CC=CCCCC1(CCCC=CCCCOC(=O)N3CCC(C(=O)N[C@@H](Cc4ccccc4C(F)(F)F)C(=O)N[C@@H](Cc4csc5ccccc45)C(=O)N[C@@H](CCC(N)=O)C(N)=O)(CC3)NC(=O)[C@H](CC(C)C)NC(=O)[C@H](Cc3ccccc3)NC(=O)[C@H](C)NC(=O)[C@H](C)NC(=O)[C@H](Cc3cccc(C(=O)O)c3)NC(=O)[C@H](CC(=O)O)NC1=O)NC(=O)[C@H](CC(C)(C)C)NC(=O)[C@H](CC(=O)O)NC2=O (stereo partly drawn) [I-2581, Ac-PL3-Asp-Npg-B5-Asp-3COOHF-Ala-Ala-Phe-Leu-SPip2-2F3MeF-BztA-Gln-NH2] | 205 nM | > 20000 nM |
| CC(=O)N1CCC[C@]12CC=CCCCC1(CCCC=CCCCOC(=O)N3CCC(C(=O)N[C@@H](Cc4ccccc4C(F)(F)F)C(=O)N[C@@H](Cc4csc5ccccc45)C(=O)N[C@@H](CCC(N)=O)C(N)=O)(CC3)NC(=O)[C@H](CC(C)C)NC(=O)[C@H](Cc3ccccc3)NC(=O)[C@H](C)NC(=O)[C@H](C)NC(=O)[C@H](Cc3cccc(C(=O)O)c3)NC(=O)[C@H](CC(=O)O)NC1=O)NC(=O)[C@H](CC(C)(C)C)NC(=O)[C@H](CC(=O)O)NC2=O (stereo partly drawn) [I-2582, Ac-PL3-Asp-Npg-B5-Asp-3COOHF-Ala-Ala-Phe-Leu-SPip2-2F3MeF-BztA-Gln-NH2] | 263 nM | > 20000 nM |
| CC(=O)N1CCC[C@]12CC=CCCCC1(CCCC=CCCCCOC(=O)N3CCC(C(=O)N[C@@H](Cc4ccccc4C(F)(F)F)C(=O)N[C@@H](Cc4csc5ccccc45)C(=O)N[C@@H](CCC(N)=O)C(N)=O)(CC3)NC(=O)[C@H](CC(C)C)NC(=O)[C@H](Cc3ccccc3)NC(=O)[C@H](C)NC(=O)[C@H](C)NC(=O)[C@H](Cc3cccc(C(=O)O)c3)NC(=O)[C@H](CC(=O)O)NC1=O)NC(=O)[C@H](CC(C)(C)C)NC(=O)[C@H](CC(=O)O)NC2=O (stereo partly drawn) [I-2583, Ac-PL3-Asp-Npg-B5-Asp-3COOHF-Ala-Ala-Phe-Leu-SPip3-2F3MeF-BztA-Gln-NH2] | 224 nM | > 20000 nM |
| CC(=O)N1CCC[C@]12CC=CCCCC1(CCCC=CCCCOC(=O)N3CCC(C(=O)N[C@@H](Cc4ccsc4)C(=O)N[C@@H](Cc4csc5ccccc45)C(=O)N[C@@H](CCC(N)=O)C(N)=O)(CC3)NC(=O)[C@H](CC(C)C)NC(=O)[C@H](Cc3ccccc3)NC(=O)[C@H](C)NC(=O)[C@H](C)NC(=O)[C@H](Cc3cccc(C(=O)O)c3)NC(=O)[C@H](CC(=O)O)NC1=O)NC(=O)[C@H](CC(C)(C)C)NC(=O)[C@H](CC(=O)O)NC2=O (stereo partly drawn) [I-2589, Ac-PL3-Asp-Npg-B5-Asp-3COOHF-Ala-Ala-Phe-Leu-SPip2-3Thi-BztA-Gln-NH2] | 25 nM | 15200 nM |
| CC(=O)N1CCC[C@]12CC=CCCCC1(CCCC=CCCCCOC(=O)N3CCC(C(=O)N[C@@H](Cc4ccsc4)C(=O)N[C@@H](Cc4csc5ccccc45)C(=O)N[C@@H](CCC(N)=O)C(N)=O)(CC3)NC(=O)[C@H](CC(C)C)NC(=O)[C@H](Cc3ccccc3)NC(=O)[C@H](C)NC(=O)[C@H](C)NC(=O)[C@H](Cc3cccc(C(=O)O)c3)NC(=O)[C@H](CC(=O)O)NC1=O)NC(=O)[C@H](CC(C)(C)C)NC(=O)[C@H](CC(=O)O)NC2=O (stereo partly drawn) [I-2590, Ac-PL3-Asp-Npg-B5-Asp-3COOHF-Ala-Ala-Phe-Leu-SPip3-3Thi-BztA-Gln-NH2] | 25 nM | 18900 nM |
| CC(=O)N1CCC[C@]12CC=CCCCC1(CCCC=CCCCOC(=O)N3CCC(C(=O)N[C@@H](Cc4ccsc4)C(=O)N[C@@H](Cc4csc5ccccc45)C(=O)N[C@@H](C)C(N)=O)(CC3)NC(=O)[C@H](CC(C)C)NC(=O)[C@H](Cc3ccccc3)NC(=O)[C@H](C)NC(=O)[C@H](CCC(N)=O)NC(=O)[C@H](Cc3cccc(C(=O)O)c3)NC(=O)[C@H](CC(=O)O)NC1=O)NC(=O)[C@H](CC(C)(C)C)NC(=O)[C@H](CC(=O)O)NC2=O (stereo partly drawn) [I-2592, Ac-PL3-Asp-Npg-B5-Asp-3COOHF-Gln-Ala-Phe-Leu-SPip2-3Thi-BztA-Ala-NH2] | 37 nM | > 20000 nM |
| CC(=O)N1CCC[C@]12CC=CCCCC1(CCCC=CCCCOC(=O)N3CCC(C(=O)N[C@@H](Cc4ccsc4)C(=O)N[C@@H](Cc4csc5ccccc45)C(=O)N[C@@H](C)C(N)=O)(CC3)NC(=O)[C@H](CC(C)C)NC(=O)[C@H](Cc3ccccc3)NC(=O)[C@H](C)NC(=O)[C@H](CCC(N)=O)NC(=O)[C@H](Cc3cccc(C(=O)O)c3)NC(=O)[C@H](CC(=O)O)NC1=O)NC(=O)[C@H](CC(C)(C)C)NC(=O)[C@H](CC(=O)O)NC2=O (stereo partly drawn) [I-2593, Ac-PL3-Asp-Npg-B5-Asp-3COOHF-Gln-Ala-Phe-Leu-SPip2-3Thi-BztA-Ala-NH2] | 27 nM | 29400 nM |
| CC(=O)N1CCC[C@]12CC1OC1CCCC1(CCCC=CCCCOC(=O)N3CC[C@@](C(=O)N[C@@H](Cc4ccsc4)C(=O)N[C@@H](Cc4csc5ccccc45)C(=O)N[C@@H](CCC(N)=O)C(N)=O)(C3)NC(=O)[C@H](CC(C)C)NC(=O)[C@H](Cc3ccccc3)NC(=O)[C@H](C)NC(=O)[C@H](C)NC(=O)[C@H](CN(CC(=O)O)CC(F)(F)F)NC(=O)[C@H](CC(=O)O)NC1=O)NC(=O)[C@H](CC(C)(C)C)NC(=O)[C@H](CC(=O)O)NC2=O (stereo partly drawn) [I-2594, Ac-PL3-Asp-Npg-B5-Asp-TfeGA-Ala-Ala-Phe-Leu-PyrS2-3Thi-BztA-Gln-NH2] | 470 nM | > 20000 nM |
